# Laboratory results: US20140179664A1, “Heterocyclyl Pyrimidine Analogues As JAK Inhibitors” (Cellzome Limited, priority 2011, published 2014)
# Tested on: STAT5 phosphorylation downstream of JAK3 in human YT cells
# Assay: pSTAT5 cell assay (IL-2 stimulated YT cells, AlphaScreen)
# Type: cell-based
# Conditions: IL-2 stimulation, read-out: Inhibition values (IC50) pSTAT5
# Description: STAT5 phosphorylation represents one of the proximal events in the signalling cascade downstream of JAK3 activation. Therefore STAT5 phosphorylation is an appropriate readout to assess the mechanistic effect of JAK3 inhibition. Stimulation of human YT cells, an NK-like cell line, with interleukin-2 (IL-2) results in phosphorylation of STAT5 at tyrosine residue 694 (Tyr694) that can be quantitatively measured by immunodetection with specific antibodies and an appropriate detection method, in this case AlphaScreen assay technology.
# Human YT cells were grown in RPMI medium (Lonza, BE12-167) with 2 mM L-Glutamine (Invitrogen, 25030-024) and 10% heat-inactivated FBS (Invitrogen, 10106-169) and kept in a humidified incubator (37° C., 5% CO2). Cells were harvested by centrifugation, washed once with HBSS (Invitrogen, 14180-046), resuspended in HBSS at 1.5×10^6 cells/ml and 0.9×10^4 cells were seeded in 6 μl per well in a 96 well White plate (PerkinElmer, 6005569).
# Test compounds were dissolved in DMSO and a 1:3 dilution series (9 steps) was prepared. To generate a dose response curve, 3 μl of fourfold concentrated compound in 4% DMSO/HBSS were added to each cell sample in the 96 well plate resulting in a final DMSO concentration of 1% DMSO. Cells were incubated for one hour in a humidified incubator (37° C., 5% CO2). To each well 3 μl of a fourfold concentrated IL-2 solution (Recombinant human IL-2, Peprotech 200-02; 120 nM solution in HBSS) was added and incubated for 30 minutes at room temperature. Cells were lysed by adding 3 μl of 5× lysis buffer (SureFire lysis buffer; Perkin Elmer, TGRS5S10K) and incubated for 10 minutes at room temperature with gentle shaking
# For signal detection by AlphaScreen® technology the SureFire phospho-STAT5 (Tyr694/Tyr699) kit was used according to instructions provided by the manufacturer (Perkin Elmer, TGRS5S10K). Acceptor beads were added as recommended by the manufacturer (Reactivation buffer/Activation buffer/Acceptor beads at a ratio of 40:10:1) and incubated at room temperature for 1.5 hours with gentle shaking Then donor beads were added as recommended (Dilution buffer/Donor beads at a ratio of 20:1) and incubated at room temperature for 1.5 hours with gentle shaking Plates were read on an Envision instrument (Perkin Elmer) with the AlphaScreen protocol. Data were analysed in BioAssay using the nonlinear regression for a sigmoidal dose-response with a variable slope.
smiles,measurement,value
NC(=O)Cn1cc(Nc2ncc(Cl)c(N[C@H](CO)c3cccc(F)c3)n2)cn1 [Compound 87],IC50,< 250 nM
